From ChEMBL document CHEMBL1944599, “From libraries to candidate: the discovery of new ultra long-acting dibasic β₂-adrenoceptor agonists” (Bioorg Med Chem Lett, 2012) come the findings set out here.

Series [1] is described as follows: physchem. The following applies: 1-octanol/aqueous buffer, pH 7.4.
Series [2] addresses T1, Alpha-1D adrenergic receptor (Homo sapiens, UniProt P25100).
T1 sequence (P25100 whole entry): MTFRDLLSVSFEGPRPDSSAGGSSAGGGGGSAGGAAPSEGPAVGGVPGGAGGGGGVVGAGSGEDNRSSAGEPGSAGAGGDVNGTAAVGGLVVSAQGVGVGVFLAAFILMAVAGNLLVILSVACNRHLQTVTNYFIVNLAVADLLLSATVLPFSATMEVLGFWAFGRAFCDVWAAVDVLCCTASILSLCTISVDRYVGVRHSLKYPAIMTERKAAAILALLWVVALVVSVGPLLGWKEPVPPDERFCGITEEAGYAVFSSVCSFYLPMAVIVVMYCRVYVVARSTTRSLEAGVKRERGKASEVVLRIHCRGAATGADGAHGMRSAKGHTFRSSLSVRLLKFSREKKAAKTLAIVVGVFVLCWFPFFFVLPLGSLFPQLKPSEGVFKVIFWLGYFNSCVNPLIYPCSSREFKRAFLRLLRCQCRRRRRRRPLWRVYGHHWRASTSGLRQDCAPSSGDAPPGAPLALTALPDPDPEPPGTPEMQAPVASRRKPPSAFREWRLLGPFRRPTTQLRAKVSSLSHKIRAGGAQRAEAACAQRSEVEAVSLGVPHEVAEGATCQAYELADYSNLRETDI
The experiment in a line: Displacement of radiolabeled Prazosin from alpha1D adrenoceptor.

The target in series [3] is D(2) dopamine receptor (Homo sapiens, UniProt P14416). Put plainly: Displacement of radiolabeled spiperone from dopamine D2 receptor.
The target of series [4] is Beta-1 adrenergic receptor (Homo sapiens, UniProt P08588). The experiment in a line: Displacement of radiolabeled iodocyanopindolol from beta1 adrenoceptor.
Series [5] addresses T2, Beta-2 adrenergic receptor (Homo sapiens, UniProt P07550). Put plainly: Displacement of radiolabeled iodocyanopindolol from recombinant beta2 adrenoceptor.
Series [6] addresses T2, Beta-2 adrenergic receptor. The experiment in a line: Agonist activity at human beta2 adrenoceptor expressed in H292 cells assessed as increase in cAMP accumulation after 60 mins by spectrophotometry. The series is classed as functional, cell-based. A general note: Changes in cAMP serve as a functional read-out for many G protein-coupled receptors.

D(2) dopamine receptor, sequence (P14416 whole entry): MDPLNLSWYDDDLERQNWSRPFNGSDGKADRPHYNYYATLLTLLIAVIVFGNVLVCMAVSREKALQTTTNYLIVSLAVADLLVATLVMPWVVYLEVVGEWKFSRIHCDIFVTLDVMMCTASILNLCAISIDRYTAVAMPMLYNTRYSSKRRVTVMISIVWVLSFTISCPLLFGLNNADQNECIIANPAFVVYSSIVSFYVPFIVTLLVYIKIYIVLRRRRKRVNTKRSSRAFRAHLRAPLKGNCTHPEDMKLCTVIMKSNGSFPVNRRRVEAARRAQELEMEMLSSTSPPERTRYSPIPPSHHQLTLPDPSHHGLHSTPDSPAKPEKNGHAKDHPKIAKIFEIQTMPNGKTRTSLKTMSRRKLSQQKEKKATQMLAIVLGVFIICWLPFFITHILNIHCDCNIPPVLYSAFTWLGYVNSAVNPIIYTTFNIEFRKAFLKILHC
Beta-1 adrenergic receptor, sequence (P08588 whole entry): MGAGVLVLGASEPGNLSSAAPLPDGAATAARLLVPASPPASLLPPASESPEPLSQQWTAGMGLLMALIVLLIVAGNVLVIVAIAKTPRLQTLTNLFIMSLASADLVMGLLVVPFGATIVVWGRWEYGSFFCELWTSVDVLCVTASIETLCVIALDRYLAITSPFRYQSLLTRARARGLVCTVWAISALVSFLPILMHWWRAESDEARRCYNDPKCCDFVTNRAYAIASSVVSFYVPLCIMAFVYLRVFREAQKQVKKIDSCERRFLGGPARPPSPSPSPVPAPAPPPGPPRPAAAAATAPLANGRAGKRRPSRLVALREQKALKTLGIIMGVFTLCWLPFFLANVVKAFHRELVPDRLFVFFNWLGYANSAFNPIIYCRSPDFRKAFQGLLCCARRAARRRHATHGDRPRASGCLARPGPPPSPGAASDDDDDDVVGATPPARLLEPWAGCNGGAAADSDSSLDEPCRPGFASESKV
T2 sequence (P07550 whole entry): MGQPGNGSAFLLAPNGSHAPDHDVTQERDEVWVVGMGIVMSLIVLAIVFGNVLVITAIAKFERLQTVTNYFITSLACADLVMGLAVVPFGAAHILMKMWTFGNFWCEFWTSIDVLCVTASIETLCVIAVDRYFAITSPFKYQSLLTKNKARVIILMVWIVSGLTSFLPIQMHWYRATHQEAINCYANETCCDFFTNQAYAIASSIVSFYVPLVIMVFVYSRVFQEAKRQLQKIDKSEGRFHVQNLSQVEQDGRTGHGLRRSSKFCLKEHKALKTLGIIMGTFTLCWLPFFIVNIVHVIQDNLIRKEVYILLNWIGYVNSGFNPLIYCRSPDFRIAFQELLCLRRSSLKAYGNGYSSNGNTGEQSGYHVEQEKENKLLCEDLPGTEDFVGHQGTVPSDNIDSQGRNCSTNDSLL

For orientation: logD means the decadic logarithm of the distribution of all forms, ionised or not, between an organic phase and buffer at a given pH. A low value points to a more hydrophilic compound. As a reminder, the IC50 is the concentration that gives 50% inhibition. In series [1], `COc1ccccc1CNCCc1cccc(CCNC[C@H](O)c2ccc(O)c3[nH]c(=O)sc23)c1` displayed a log distribution coefficient (logD) of 0.9. The IC50 in series [2] was 25.1 nM; in series [3] it was 1000 nM; in series [4], 63.1 nM.
In the case of `O=c1[nH]c2c(O)ccc(CCNCCc3cccc(CN4CCC(c5ccccc5)CC4)c3)c2s1`, the IC50 in series [5] is 31.6 nM.
The EC50 is the concentration at which the effect is half-maximal. `O=c1[nH]c2c(O)ccc(CCNCCc3ccc(CNCCc4ccccn4)cc3)c2s1`: the EC50 in series [6] was 158 nM. In addition, the IC50 in series [5] was 100 nM.
In the case of `O=c1[nH]c2c(O)ccc(CCNCCc3ccc(CNCCc4ccccc4F)cc3)c2s1`, the 50% effective concentration (EC50) in series [6] is 79.4 nM. Also, the IC50 in series [5] is 1260 nM.
With `O=c1[nH]c2c(O)ccc(CCNCCc3cccc(CNCCc4c(Cl)cccc4Cl)c3)c2s1`, the IC50 in series [5] was 0.631 nM.
With `COc1ccccc1CNCc1ccc(CCNC[C@H](O)c2ccc(O)c3[nH]c(=O)sc23)cc1`, in series [1], the logD stood at 0.2. Besides, the IC50 in series [2] was 100 nM; in series [3] it was 2510 nM; in series [5] it was 126 nM; in series [4], 1260 nM. Besides, the half-maximal effective concentration (EC50) in series [6] is 3.16 nM.
Consider `O=c1[nH]c2c(O)ccc(CCNCCc3ccc(CNCCc4c(Cl)cccc4Cl)cc3)c2s1`, for which, in series [6], the EC50 was 100 nM. The IC50 in series [5] is 501 nM.
For `COc1ccccc1CNCc1ccc(CCNC[C@@H](O)c2ccc(O)c3[nH]c(=O)sc23)cc1`, the IC50 in series [2] was 79.4 nM; in series [3], 2000 nM; in series [5], 251 nM; in series [4], 1260 nM. Further, the concentration giving a half-maximal response (EC50) in series [6] is 7.94 nM.
As to `O=c1[nH]c2c(O)ccc([C@@H](O)CNCCc3cccc(CNCCc4ccccc4Cl)c3)c2s1`, the pH-dependent lipophilicity (logD) in series [1] came out at 1.6. In addition, the IC50 in series [2] is 50.1 nM; in series [3], 631 nM; in series [5], 0.631 nM; in series [4], 158 nM. In addition, the EC50 in series [6] was 0.251 nM.
With `O=c1[nH]c2c(O)ccc([C@@H](O)CNCCc3ccc(CNCCc4ccccn4)cc3)c2s1`, in series [1], the logD was -0.3. Further, the IC50 in series [2] is 25.1 nM; in series [3], 2510 nM; in series [4], more than 794 nM.
Take `COc1ccccc1CCNCc1ccc(CCNCCc2ccc(O)c3[nH]c(=O)sc23)cc1`: in series [5], the IC50 was 200 nM.
With `C[C@@H](NCc1ccccc1-c1ccc(CCNC[C@H](O)c2ccc(O)c3[nH]c(=O)sc23)cc1)c1ccccc1`, the half-maximal effective concentration (EC50) in series [6] was 3.98 nM. The IC50 in series [5] was 2 nM.
For the compound `O=c1[nH]c2c(O)ccc([C@@H](O)CNCCOc3cccc(CNCCc4ccccc4F)c3)c2s1`, in series [1], the pH-dependent lipophilicity (logD) worked out at 1.9. Moreover, the IC50 in series [2] is 25.1 nM; in series [3] it was 398 nM; in series [5], 7.94 nM; in series [4], 200 nM. For the same compound, in series [6], the EC50 was 2.51 nM.
Turning to `COc1cccc(CNCc2cccc(CCNC[C@H](O)c3ccc(O)c4[nH]c(=O)sc34)c2)c1`, the logD in series [1] turned out to be 0.9. The IC50 in series [2] is 100 nM; in series [3], 794 nM; in series [5], 6.31 nM; in series [4], 63.1 nM. Also, the 50% effective concentration (EC50) in series [6] is 1 nM.
On to `O=c1[nH]c2c(O)ccc([C@@H](O)CNCCc3cccc(CNCc4ccccc4Cl)c3)c2s1`, for which the logD in series [1] came out at 1.9. The figures for the IC50 in series [2], in series [3] and in series [4] were 158 nM, 251 nM and 10 nM, respectively.
With `O=c1[nH]c2c(O)ccc([C@@H](O)CNCCc3cccc(CN4CCC(c5ccccc5)CC4)c3)c2s1`, the EC50 in series [6] was 1 nM. Also, the IC50 in series [5] is 3.98 nM.
On to `COc1ccc(CNCc2cccc(CCNC[C@H](O)c3ccc(O)c4[nH]c(=O)sc34)c2)cc1`, for which the logD in series [1] was determined as 0.9. Also, the IC50 is 158 nM in series [2], 794 nM in series [3], 5.01 nM in series [5] and 10 nM in series [4]. For the same compound, in series [6], the EC50 is 0.794 nM.
For the compound `O=c1[nH]c2c(O)ccc([C@@H](O)CNCCc3cccc(CNCc4ccccn4)c3)c2s1`, the IC50 in series [2] was 316 nM; in series [3], 5010 nM; in series [4], 79.4 nM.
`COc1ccccc1CN(C)Cc1cccc(CCNC[C@H](O)c2ccc(O)c3[nH]c(=O)sc23)c1` displayed a logD in series [1] of 1.5. For the same compound, the IC50 was 251 nM in series [2], 1000 nM in series [3], 25.1 nM in series [5] and 200 nM in series [4]. For the same compound, the EC50 in series [6] is 3.16 nM.
As for `O=c1ccc2c([C@@H](O)CNCCc3cccc(CNCCc4ccccn4)c3)ccc(O)c2[nH]1`, the concentration for half-maximal inhibition (IC50) in series [2] was 398 nM; in series [3] it was more than 10000 nM; in series [5] it was 63.1 nM; in series [4] it was 3160 nM. In addition, the EC50 in series [6] is 2.51 nM.
With `CC(Cc1cccc(CNCCc2c(Cl)cccc2Cl)c1)NC[C@H](O)c1ccc(O)c2[nH]c(=O)sc12` (some centres undefined), the logD in series [1] was 2.4. Moreover, the half-inhibitory concentration (IC50) was 39.8 nM in series [2], 126 nM in series [3] and 20 nM in series [4].
For the compound `COCCNCc1ccc(CCNC[C@H](O)c2ccc(O)c3[nH]c(=O)sc23)cc1`, in series [1], the logD is -0.5. Further, the IC50 was 631 nM in series [2], more than 10000 nM in series [3], 316 nM in series [5] and 794 nM in series [4]. For the same compound, the EC50 in series [6] is 15.8 nM.
`O=c1[nH]c2c(O)ccc([C@@H](O)CNCCc3ccc(CNCCc4ccccc4)cc3)c2s1` registered a logD in series [1] of 1.1. Moreover, the IC50 in series [2] is 12.6 nM; in series [3], 2000 nM; in series [5] it was 2 nM; in series [4] it was 398 nM. In series [6], the EC50 is 0.251 nM.
As for `CCN(Cc1ccncc1)Cc1cccc(-c2ccc(CCNCCc3ccc(O)c4[nH]c(=O)sc34)cc2)c1`, in series [6], the half-maximal effective concentration (EC50) is 316 nM. Further, in series [5], the IC50 is 794 nM.
In the case of `CC(CNCc1ccc(CCNC[C@H](O)c2ccc(O)c3[nH]c(=O)sc23)cc1)c1ccccc1` (some centres undefined), in series [1], the pH-dependent lipophilicity (logD) is 1.2. The IC50 in series [2] was 31.6 nM; in series [3] it was 2510 nM; in series [5] it was 0.2 nM; in series [4], 501 nM. Further, the EC50 in series [6] is 0.398 nM.
`O=c1[nH]c2c(O)ccc([C@@H](O)CNCCc3ccccc3CNCCc3ccccc3F)c2s1` had a logD in series [1] of 1.6. In addition, the IC50 was 200 nM in series [2], 794 nM in series [3], 12.6 nM in series [5] and 2 nM in series [4]. Also, the EC50 in series [6] is 1.58 nM.
Compound `O=c1[nH]c2c(O)ccc([C@@H](O)CNCCc3ccc(CNCCc4ccccc4F)cc3)c2s1` had a logD in series [1] of 1.3. For the same compound, the IC50 in series [2] was 50.1 nM; in series [3], 2000 nM; in series [5], 2 nM; in series [4] it was 398 nM. The EC50 in series [6] is 0.398 nM.
With `O=c1[nH]c2c(O)ccc([C@@H](O)CNCCc3cccc(CNCCCc4ccccc4)c3)c2s1`, the logD in series [1] worked out at 1.1. Further, the IC50 is 158 nM in series [2], 316 nM in series [3], 0.794 nM in series [5] and 20 nM in series [4]. In addition, in series [6], the EC50 was 0.501 nM.
Turning to `O=c1[nH]c2c(O)ccc([C@@H](O)CNCCc3cccc(CNCCCc4ccccn4)c3)c2s1`, the half-inhibitory concentration (IC50) in series [2] was 251 nM; in series [3] it was more than 2510 nM; in series [5], 0.501 nM; in series [4], 63.1 nM. In addition, in series [6], the EC50 was 1 nM.
Regarding `COc1ccccc1CCNCc1ccc(CCNC[C@H](O)c2ccc(O)c3[nH]c(=O)sc23)cc1`, the IC50 in series [2] is 7.94 nM; in series [3], 631 nM; in series [5] it was 2 nM; in series [4], 316 nM. Besides, in series [6], the EC50 was 0.316 nM.
Take `O=c1[nH]c2c(O)ccc(CCNCCc3cccc(CN[C@H]4C[C@@H]4c4ccccc4)c3)c2s1`: in series [6], the EC50 is 3.98 nM. For the same compound, in series [5], the IC50 was 12.6 nM.
`O=c1[nH]c2c(O)ccc([C@@H](O)CNCCCc3cccc(CNCCc4c(Cl)cccc4Cl)c3)c2s1`: the IC50 in series [2] is 39.8 nM; in series [3], 79.4 nM; in series [5], 6.31 nM; in series [4], 7.94 nM. Moreover, in series [6], the EC50 is 1.26 nM.
`O=c1[nH]c2c(O)ccc(CCNCCc3ccc(CN4CC[C@@H](Oc5ccc(Cl)cc5)C4)cc3)c2s1`: the EC50 in series [6] was 158 nM. Besides, the IC50 in series [5] was 126 nM.
Take `O=c1[nH]c2c(O)ccc([C@@H](O)CNCCc3ccc(-c4cccc(CN5Cc6ccccc6C5)c4)cc3)c2s1`: the EC50 in series [6] is 10 nM. Further, the IC50 in series [5] was 63.1 nM.
As for `O=c1[nH]c2c(O)ccc(CCNCCc3ccc(-c4cccc(CN5Cc6ccccc6C5)c4)cc3)c2s1`, in series [5], the IC50 is 15.8 nM.
As to `O=c1[nH]c2c(O)ccc([C@@H](O)CNCCc3ccc(CN4CCCC4)cc3)c2s1`, the EC50 in series [6] was 39.8 nM.
Consider `CCOc1ccccc1CNCc1cccc(CCNC[C@H](O)c2ccc(O)c3[nH]c(=O)sc23)c1`, for which the IC50 in series [2] was 31.6 nM; in series [3] it was 1260 nM; in series [5] it was 25.1 nM; in series [4], 100 nM. Besides, the EC50 in series [6] was 3.16 nM.
As to `OCc1cc([C@@H](O)CNCCc2ccc(CNCCc3ccccc3)cc2)ccc1O`, the IC50 in series [2] was 501 nM; in series [3] it was more than 7940 nM; in series [5], 631 nM; in series [4] it was more than 3160 nM. In series [6], the EC50 was 31.6 nM.
